Experimental data published in patent US20240366648A1, “NAD-AUGMENTATION THERAPY FOR PARKINSON'S DISEASE” (Vestlandets Innovasjonsselskap AS (VIS), priority 2021, published 2024).

Experiments:
Type in all cases: in vivo, human
[1] = test system: total NAD in PBMCs; assay: NAD measurement in PBMCs, NADMed method
From the text: In addition to these analyses, we measured NAD levels in patient PBMC using a different approach (NADMed method). […] However, the trend was clear and convincing.
FIG. 16: NAD measurement in PBMCs from the study cohort, using the NADMed method.

[2] = test system: gene expression in muscle; assay: RNA-seq differential gene expression in muscle tissue; settings: NR vs placebo
Method: For all subjects at both visits, total RNA was extracted from muscle biopsy tissue and PBMC homogenate using RNeasy plus mini kit (Qiagen) with on-column DNase treatment according to manufacturer's protocol. The final elution was made in 45 ul of dH2O. The concentration and integrity of the total RNA were estimated by Ribogreen assay (Thermo Fisher Scientific), and Fragment Analyzer (Advanced Analytical), respectively, and 10 ng of total RNA was used for downstream RNA-seq applications using the SMARTer Stranded Total RNA-Seq Kit v2-Pico Input Mammalian Kit (IlluminaTakara Bio USA, Inc., Mountian View, CA) as per manufacturer's recommended protocol. Library quantity was assessed by Picogreen Assay (Thermo Fisher Scientific), and the library quality was estimated by utilizing a DNA High Sense chip on a Caliper Gx (Perkin Elmer). Accurate quantification of the final libraries for sequencing applications was determined using the qPCR-based KAPA Biosystems Library Quantification kit (Kapa Biosystems, Inc.). Each library pooled equimolar prior to clustering. One hundred bp paired-end sequencing was performed on an Illumina NovaSeq S4 sequencer (Illumina, Inc.). Two subjects were discarded from the PBMC samples and two from the muscle samples due to either insufficient tissue quantity, participant drop out/lack of sample, or being outliers in expression. […] FASTQ files were assessed using […] version 0.11.9. Quantification at the transcript level was calculated using Salmon version 1.3.0 with fragment-level GC bias correction against the GENCODE version 35, with the whole genome as decoy sequence. Transcript-level quantification was collapsed onto gene-level using the tximport R package version 1.8.0. Genes in non-canonical chromosomes and scaffolds and transcripts encoded by the mitochondrial genome were filtered out, together with non-protein-coding genes. Low-expressed genes were likewise removed from downstream analyses (expression below 10 reads for 75% of the samples). PBMC and muscle datasets were analysed independently. For PBMC samples, cell type composition was assessed employing ABIS. Differential gene expression was performed using the DESeq2 R package version 1.22.2. The generalized linear model formula accounted for both interindividual variability between subjects and the normal course of the experiment (baseline for each subject and baseline for the time-course). Multiple hypothesis testing was performed with the default automatic filtering of DESeq2 followed by false discovery rate (FDR) calculation by the Benjamini-Hochberg procedure.

[3] = test system: gene expression in PBMCs; assay: RNA-seq differential gene expression in PBMCs
Method: For all subjects at both visits, total RNA was extracted from muscle biopsy tissue and PBMC homogenate using RNeasy plus mini kit (Qiagen) with on-column DNase treatment according to manufacturer's protocol. The final elution was made in 45 ul of dH2O. The concentration and integrity of the total RNA were estimated by Ribogreen assay (Thermo Fisher Scientific), and Fragment Analyzer (Advanced Analytical), respectively, and 10 ng of total RNA was used for downstream RNA-seq applications using the SMARTer Stranded Total RNA-Seq Kit v2—Pico Input Mammalian Kit (IlluminaTakara Bio USA, Inc., Mountian View, CA) as per manufacturer's recommended protocol. Library quantity was assessed by Picogreen Assay (Thermo Fisher Scientific), and the library quality was estimated by utilizing a DNA High Sense chip on a Caliper Gx (Perkin Elmer). Accurate quantification of the final libraries for sequencing applications was determined using the qPCR-based KAPA Biosystems Library Quantification kit (Kapa Biosystems, Inc.). Each library pooled equimolar prior to clustering. One hundred bp paired-end sequencing was performed on an Illumina NovaSeq S4 sequencer (Illumina, Inc.). Two subjects were discarded from the PBMC samples and two from the muscle samples due to either insufficient tissue quantity, participant drop out/lack of sample, or being outliers in expression.
FASTQ files were assessed using fastQC version 0.11.9. Quantification at the transcript level was calculated using Salmon version 1.3.0 with fragment-level GC bias correction against the GENCODE version 35, with the whole genome as decoy sequence. Transcript-level quantification was collapsed onto gene-level using the tximport R package version 1.8.0. Genes in non-canonical chromosomes and scaffolds and transcripts encoded by the mitochondrial genome were filtered out, together with non-protein-coding genes. Low-expressed genes were likewise removed from downstream analyses (expression below 10 reads for 75% of the samples). PBMC and muscle datasets were analysed independently. For PBMC samples, cell type composition was assessed employing ABIS. Differential gene expression was performed using the DESeq2 R package version 1.22.2. The generalized linear model formula accounted for both interindividual variability between subjects and the normal course of the experiment (baseline for each subject and baseline for the time-course). Multiple hypothesis testing was performed with the default automatic filtering of DESeq2 followed by false discovery rate (FDR) calculation by the Benjamini-Hochberg procedure.

**Q.** How did the “NAD levels in PBMC, between visits” value ([1]; NR group, did not reach statistical significance in paired t-test) turn out when `NC(=O)c1ccc[n+]([C@@H]2O[C@H](CO)[C@@H](O)[C@H]2O)c1` [NR, nicotinamide riboside] was run?
**A.** increase

**Q.** And the “between visit change in PBMC NAD levels, NR vs placebo group” value ([1]; p=0.0256)?
**A.** significantly higher increase

**Q.** And the “KLF2 expression in muscle” value [2]?
**A.** substantial upregulation

**Q.** What about the “expression of PARP15, AMT, FARS2, TMEM242 in muscle” value [2] of the same molecule?
**A.** upregulation

**Q.** What about the “gene set enrichment in muscle: proteasomal function, RNA transport and stability” value [2] of the same molecule?
**A.** upregulation

**Q.** What about the “number of differentially expressed genes in muscle tissue” value ([2]; between visit differences, FDR<0.05) of the same molecule?
**A.** 58 genes

**Q.** And the “BLOC1S2 expression in PBMCs” value ([3]; NR vs placebo)?
**A.** upregulation

**Q.** What about the “functional enrichment in PBMCs: ribosomal, proteasomal, lysosomal and mitochondrial (oxidative phosphorylation) pathways” value ([3]; NR vs placebo) of the same molecule?
**A.** highly significant upregulation

**Q.** And the “genes encoding known NAD biosynthetic enzymes including NMRK1” value ([3]; NR vs placebo)?
**A.** No significant changes

**Q.** And the “number of genes significantly associated with NR supplementation in PBMCs” value ([3]; NR vs placebo)?
**A.** 13 genes

**Q.** What about the “Direction of pathway enrichment (MitoCarta v3.0): mtRNA metabolism” value ([3]; P 0.003136, corrected P 0.13170171) of the same molecule?
**A.** DOWN

**Q.** And the “Direction of pathway enrichment (MitoCarta v3.0): mt-tRNA modifications” value ([3]; P 0.009994, corrected P 0.209874)?
**A.** DOWN

**Q.** What about the “Direction of pathway enrichment (MitoCarta v3.0): Cl assembly factors” value ([3]; P 0.013122, corrected P 0.183708) of the same molecule?
**A.** DOWN

**Q.** What about the “Direction of pathway enrichment (MitoCarta v3.0): mtRNA granules” value ([3]; P 0.018336, corrected P 0.192528) of the same molecule?
**A.** DOWN

**Q.** And the “Direction of pathway enrichment (MitoCarta v3.0): Vitamin metabolism” value ([3]; P 0.02605831, corrected P 0.21888977)?
**A.** DOWN

**Q.** What about the “Direction of pathway enrichment (MitoCarta v3.0): Mitochondrial ribosome assembly” value ([3]; P 0.027256, corrected P 0.190792) of the same molecule?
**A.** DOWN

**Q.** And the “Direction of pathway enrichment (MitoCarta v3.0): mt-tRNA synthetases” value ([3]; P 0.03548, corrected P 0.21288)?
**A.** DOWN

**Q.** What about the “Direction of pathway enrichment (MitoCarta v3.0): OXPHOS assembly factors” value ([3]; P 0.04239743, corrected P 0.2225865) of the same molecule?
**A.** DOWN

**Q.** And the “association with estimated cell type proportions in PBMC samples” value ([3]; p>0.5)?
**A.** did not show a significant association
